{"source": "patent US5532258A", "about": "“H2 -receptor antagonist thiazoles” (Fujisawa Pharmaceutical Co., Ltd., priority 1991, dated 1996)", "key": {"stress ulcer": {"tested_on": "stress ulcer", "assay": "Test B (Inhibition of stress ulcer)", "format": "in vivo, male Sprague-Dawley rats", "settings": "rats; 32 mg/kg orally just before stress; restraint in water bath 22° C. for 7 hours; vs control group", "procedure": "Test B (Inhibition of stress ulcer):\nFive male Sprague-Dawley rats, aged 7 weeks, were fasted but allowed free access to water for 24 hours. Animals were placed in a restraint cage and immersed to a level of the xiphoid in a water bath kept 22° C. for 7 hours. Each of the test compounds (32 mg/kg) suspended in 0.1% methylcellulose solution was administered orally just before the stress subjection. Animals were sacrificed and stomachs were removed. After fixing with 2% formalin, stomachs were opened along the greater curvature and area of ulcers was measured. Percentage inhibition was calculated by comparing the mean area of ulcers (mm^2) in the test group with that in the control group."}, "Gastric secretion [1]": {"tested_on": "Gastric secretion", "assay": "Test C (Gastric secretion from lumen perfused stomach in anesthetized rats)", "format": "in vivo, Male Sprague-Dawley rats", "settings": "1 mg/kg intravenously, histamine (3 mg/kg/hr) i.v. stimulation", "procedure": "Test C (Gastric secretion from lumen perfused stomach in anesthetized rats):\nMale Sprague-Dawley rats weighing about 250 g were used. Rats were deprived of food but allowed free access to water for 24 hours. The animals were anesthteized with 1.25 g/kg urethane intraperitoneally. The abdomen was opened and the gastric lumen was perfused with saline throughout the experiment. The perfusate was titrated continuously against 25 mM sodium hydroxide to maintain the perfusate solution at pH 7.0. Gastric secretion was stimulated by intravenous infusion with histamine (3 mg/kg/hr). After reaching plateau, test compound (1 mg/kg) was given intravenously at a volume of 2 ml/kg. Effect of drug was expressed as maximal inhibition of acid output calculated by the amount of sodium hydroxide required."}, "Gastric secretion [2]": {"tested_on": "Gastric secretion", "assay": "Test A (Gastric secretion in Heidenhain pouch dogs)", "format": "in vivo, Beagle dogs", "settings": "3.2 mg/kg orally, tetragastrin (10 μg/kg/hr) i.v. stimulation, 3 hours", "procedure": "Test A (Gastric secretion in Heidenhain pouch dogs):\nBeagle dogs, weighing about 8-13 kg, were used for the study on gastric secretion. The animals were surgically provided with a vagally denervated Heidenhain pouch. One month or more later, the dogs were fasted overnight. Gastric secretion was stimulated by an intravenous infusion of tetragastrin (10 μg/kg/hr). Gastric juice was collected at 15 minutes intervals. After the secretion plateau had been established, test compound (3.2 mg/kg) suspended in 0.1% methyl cellulose solution was administered orally. Gastric juice was collected at 15 minutes intervals over 3 hours period. Acid concentration was determined by titrating an aliquot against 0.1N sodium hydroxide using automatic titrator (Hiranuma RAT-11 Type). Total acid output was calculated by multiplying the volume of gastric juice by acid concentration, and percentage inhibition was calculated by comparing total acid output before adminstration of test compound with that after administration of test compound."}}}
{"smiles": "CCNC(N)=Nc1nc(-c2cccc(CNC(C)=O)c2)cs1", "note": "[Test Compound (c), 4-(3-Acetylaminomethylphenyl)-2-[[(amino)(ethylamino)methylene]amino]thiazole]", "values": [{"measurement": "Inhibition (%) of area of ulcers", "setting": "stress ulcer", "result": 88.1, "unit": "%"}]}
{"smiles": "NC(=O)NCc1cccc(-c2csc(N=C(N)N)n2)c1", "note": "[Test Compound (a), 4-(3-Ureidomethylphenyl)-2-(diaminomethyleneamino)thiazole]", "values": [{"measurement": "Inhibition (%), maximal inhibition of acid output", "setting": "Gastric secretion [1]", "result": 99, "unit": "%"}]}
{"smiles": "CNC(N)=Nc1nc(-c2cccc(CNC(C)=O)c2)cs1", "note": "[Test Compound (b), 4-(3-Acetylaminomethylphenyl)-2-[[(amino)(methylamino)methylene]amino]thiazole]", "values": [{"measurement": "Inhibition (%) of total acid output", "setting": "Gastric secretion [2]", "result": 88.1, "unit": "%"}]}
